Test results reported in patent US10590393B2, “Retinoic acid enhanced human stem cell derived blood brain barrier model” (Wisconsin Alumni Research Foundation, priority 2012, dated 2020).

What was measured:
Assay type in all cases: cell-based, human
[1] = test system: differentiating IMR90-4 hiPSCs; test: Adherens junction and tight junction protein expression (immunocytochemistry, flow cytometry, western blot)
Procedure: Cells were washed twice with phosphate-buffered saline (PBS; Sigma) and fixed with either 100% ice-cold methanol for 10 min or 4% paraformaldehyde for 15 min. Cells were then washed twice with PBS and blocked in PBS containing 40% goat serum (40% PBSG; Sigma) at 20° C. for 30 min. In some instances, 0.1% Triton X-100 (TX-100) was included during this step to permeabilize the cells. Cells were then washed once with PBS and incubated with primary antibodies against occludin (1:100; Invitrogen), claudin-5 (1:100; Invitrogen), VE-cadherin (1:25; Santa Cruz Biotechnology), von Willebrand Factor (vWF; 1:100; Dako), p-glycoprotein (clone F4; 1:25; Lab Vision), breast cancer resistance protein (BCRP, clone 5D3; 1:25; Millipore), multidrug resistance protein 1 (MRP1, clone QCRL-1; 1:100; Millipore), in 40% PBSG at 4° C. overnight. Cells were washed three times with PBS and incubated with secondary antibodies (goat anti-rabbit Texas Red and goat anti-mouse Alexa Fluor 488; 1:500; Invitrogen) for 1 h at 20° C. […] For quantitative analysis of BMEC integrity, the percentage of cells expressing frayed tight junctions was counted using BMECs immunolabeled for occludin. […] A minimum of four separate frames and 1000 total cells were counted to obtain a percentage of frayed tight junctions.
Cells were washed once with PBS and dissociated with ACCUTASE for 5 min, then spun down and fixed in 2% paraformaldehyde for 15 min or 100% methanol for 10 min at 20° C. […] After another two washes with PBS containing 5% FBS, cells were analyzed on a FACSCALIBER flow cytometer and the IgG control was used to quantify positive labeling. Elevated GLUT-1 expression was quantified using a GLUT-1/forward scatter plot referenced to baseline GLUT-1 expression measured at day 4 of UM culture.
Cells were washed once with PBS and lysed with RIPA buffer (Pierce, Rockford, Ill., USA). Protein concentration was quantified via BCA assay (Pierce) and proteins were then resolved by SDS-PAGE on 4-20% Tris-Glycine gradient gels (Invitrogen). […] Protein levels were detected via a SUPERSIGNAL West Pico Chemiluminescent Substrate (Pierce).

IMR90-4-derived BMECs = test: Analysis of tight junction fidelity (frayed tight junctions, occludin immunolabel)
Procedure: Cells were washed twice with phosphate-buffered saline (PBS; Sigma) and fixed with either 100% ice-cold methanol for 10 min or 4% paraformaldehyde for 15 min. Cells were then washed twice with PBS and blocked in PBS containing 40% goat serum (40% PBSG; Sigma) at 20° C. for 30 min. In some instances, 0.1% Triton X-100 (TX-100) was included during this step to permeabilize the cells. Cells were then washed once with PBS and incubated with primary antibodies against occludin (1:100; Invitrogen), claudin-5 (1:100; Invitrogen), VE-cadherin (1:25; Santa Cruz Biotechnology), von Willebrand Factor (vWF; 1:100; Dako), p-glycoprotein (clone F4; 1:25; Lab Vision), breast cancer resistance protein (BCRP, clone 5D3; 1:25; Millipore), multidrug resistance protein 1 (MRP1, clone QCRL-1; 1:100; Millipore), in 40% PBSG at 4° C. overnight. Cells were washed three times with PBS and incubated with secondary antibodies (goat anti-rabbit Texas Red and goat anti-mouse Alexa Fluor 488; 1:500; Invitrogen) for 1 h at 20° C. Cell nuclei were counterstained with 300 nM 4′,6-Diamidino-2-pheny-lindoldihydrochloride (DAPI) for 10 min. […] For quantitative analysis of BMEC integrity, the percentage of cells expressing frayed tight junctions was counted using BMECs immunolabeled for occludin. […] A minimum of four separate frames and 1000 total cells were counted to obtain a percentage of frayed tight junctions.

[2] = test system: efflux transporter genes in IMR90-4-derived BMECs; test: qPCR of efflux transporter gene expression; details: compared to untreated samples
Procedure: Cells were washed once with PBS and dissociated with ACCUTASE (Invitrogen). Total RNA was extracted using an RNEASY Mini Kit (Qiagen) according to the manufacturer's instructions and quantified using a NanoDrop® ND-1000. cDNA was generated from 1 μg of total RNA using Omniscript reverse transcriptase (Qiagen) and an oligo-dT primer (Invitrogen). qPCR was conducted using 1 μL of cDNA and iQ SYBR Green Mastermix (Bio-Rad) on an iCycler (Bio-Rad). Relative expression was quantified between samples using the comparative cycle threshold (Ct) method with glyceraldehyde-3-phosphate dehydrogenase (GAPDH) as the housekeeping gene. […] Primer sequences were as previously reported.

For `CC1=C(/C=C/C(C)=C/C=C/C(C)=C/C(=O)O)C(C)(C)CCC1` [RA, retinoic acid], the “decrease of the level of claudin-5 expression” value ([1]; RA during 2 days of EC medium treatment) was 1.7 fold, the “increase of the level of occludin expression” value ([1]; RA during 2 days of EC medium treatment, across biological replicates) was 1.8 to 2.9 fold and the “positive expression for VE-cadherin, claudin-5, and occludin” value ([1]; purified RA-treated BMECs) was 95-98%. For the same molecule, the “cells with frayed tight junctions” value (IMR90-4-derived BMECs; BMECs only treated with RA) was 1.5±0.9%, the “cells with frayed tight junctions” value (IMR90-4-derived BMECs; RA-treated BMECs with sequential pericyte/hNPC co-culture in modified EC medium) was 1.4±0.6% and the “ABCB1 (p-glycoprotein) upregulation, ΔΔCt” value [2] was 1.6±0.4. For the same molecule, the “ABCC1 (MRP1) upregulation, ΔΔCt” value [2] was 1.97±0.71, the “ABCC2 (MRP2) upregulation, ΔΔCt” value [2] was 1.3±0.31 and the “ABCC5 (MRP5) upregulation, ΔΔCt” value [2] was 0.9±0.29. The “ABCG2 (BCRP) upregulation, ΔΔCt” value [2] was 1.8±0.15.
